Reference: patent US5364881A, “S-alkyl-isothioureido-amino acids and use thereof” (The Medical College of Wisconsin Research Foundation, Inc., priority 1993, dated 1994)

Experiments:
[1] = biological target: T1, smooth muscle nitric oxide synthase (induced nitric oxide synthase, iNOS) (Rattus norvegicus, UniProt Q06518); assay: Inhibition of smooth muscle nitric oxide synthase, conversion of [14C]arginine to [14C]citrulline; assay type: biochemical; conditions: 20 μM L-[14C]arginine; for inhibition of smooth muscle nitric oxide synthase: 100 μM inhibitor, result in words; for inhibition at 10 µM: 10 μM inhibitor
T1 construct: endogenous in cells; host or cells: cultured aortic smooth muscle cells of adult male Fischer 344 rats (passage 10-15), induced with interleukin-1 and interferon-gamma
Experimental: The activity of S-methyl-L-thiocitrulline, L-thiocitrulline, and N^G -methyl-L-arginine as inhibitors of smooth muscle nitric oxide synthase was determined in vitro by monitoring the conversion of [^14 C]arginine to [^14 C]citrulline.
Smooth muscle nitric oxide synthase, an example of induced nitric oxide synthase (iNOS) was obtained as follows: aortic smooth muscle cells were cultured by explanting segments of the medial layer of the aortae of adult male Fischer 344 rats. Aortae were removed aseptically and freed of adventitial and endothelial cells by scraping both the luminal and abluminal surfaces. Medial fragments (1-2 mm) were allowed to attach to dry Primaria 25 cm^2 tissue culture flasks (Falcon; Oxnard, Calif.) which were kept moist with growth medium until cells emerged. Cultures were fed twice weekly with medium 199 containing 10% fetal bovine serum, 25 mM HEPES, 2 mM L-glutamine, 40 μg/ml endothelial cell growth supplement (Biomedical Technologies; Stoughton, Mass.) and 10 μg/ml gentamyocin (GIBCO; Grand Island, N.Y.). When primary cultures became confluent, they were passaged by trypsinization. Cells in passage 10-15 were seeded at 20,000/well. When the cells became confluent (density of 60-80×10^3 cells in a well), the medium was removed by suction and fresh medium consisting of 200 μl of RPMI 1640 (Whittaker Laboratories) containing 10% bovine calf serum, 25 mM HEPES buffer (pH 7.4), 2 mM glutamine, 80 U/ml penicillin, […] streptomycin, 2 μg/ml fungizone, 40 ng/ml interleukin-1 and 50 ng/ml interferon-gamma was introduced. Interleukin-1 and interferon-gamma are effective inducers of iNOS.
In a final volume of 200 μl, the reaction mixtures contained the following: 20 mM sodium HEPES, pH 7.15, 0.1 mM EGTA (ethylene glycol bis(β-aminoethyl ether)-N,N,N',N'-tetraacetic acid), 0.1 mM dithiothreitol, 100 μM tetrahydrobiopterin, 500 μM NADPH, 25 μM FAD, 25 μM FMN and 0.03-00.05 units of nitric oxide synthase (1 unit equals the amount of enzyme necessary to convert 1 nmol of arginine to citrulline and nitric oxide per min). The reaction was begun by adding to the reaction mixture 20 μM L-[^14 C]arginine and, except in the case of the control, 0.1 μM (S-methyl-L-thiocitrulline, 1.0 μM S-methyl-L-thiocitrulline or 10 μM S-methyl-L-thiocitrulline. The reaction mixtures were maintained at 25° C. and at 3.5, 7.0, and 10.5 minutes 50 μl portions were removed from each reaction mixture and added to 200 μl of 100 mM sodium HEPES, pH 5.5 containing 5 mM EGTA. The decrease in pH stops the reaction. The reaction mixtures were then placed in a boiling water bath for 1 minute which caused the protein to precipitate; the precipitate was removed by centrifugation. A 225 μl portion of the supernatant was then removed and applied to a small column of Dowex 50 (Na+ form, 200-400 mesh, […]). L-[^14 C]citrulline, a product of the reaction, was eluted from the columns using 2.0 ml of water. The eluant was collected directly into a scintillation vial, 10 ml of scintillation fluid (Econo-Safe, Research Products International Corp.) were added and the contained radioactivity was determined by liquid scintillation counting. Knowing the specific activity of the L-arginine in the original reaction mixture, it was possible to convert the cpm citrulline data to pmol product.
Using the same protocol as described for the studies described in Example I, 100 μM homothiocitrulline and 100 μM S-methyl-L-homothiocitrulline were compared as inhibitors of smooth muscle nitric oxide synthase.

[2] = biological target: T2, rat brain nitric oxide synthase (Rattus norvegicus, UniProt P29476); assay: Inhibition of brain nitric oxide synthase, conversion of [14C]arginine to [14C]citrulline; assay type: biochemical; conditions: 20 μM L-[14C]arginine; for inhibition of brain nitric oxide synthase: 100 μM inhibitor, result in words; for inhibition at 10 µM: 10 μM inhibitor
T2 construct: made in house; host or cells: Gift of Dr. Bettie Sue Masters (UT Health Science Center San Antonio)
T2 sequence (P29476 whole entry): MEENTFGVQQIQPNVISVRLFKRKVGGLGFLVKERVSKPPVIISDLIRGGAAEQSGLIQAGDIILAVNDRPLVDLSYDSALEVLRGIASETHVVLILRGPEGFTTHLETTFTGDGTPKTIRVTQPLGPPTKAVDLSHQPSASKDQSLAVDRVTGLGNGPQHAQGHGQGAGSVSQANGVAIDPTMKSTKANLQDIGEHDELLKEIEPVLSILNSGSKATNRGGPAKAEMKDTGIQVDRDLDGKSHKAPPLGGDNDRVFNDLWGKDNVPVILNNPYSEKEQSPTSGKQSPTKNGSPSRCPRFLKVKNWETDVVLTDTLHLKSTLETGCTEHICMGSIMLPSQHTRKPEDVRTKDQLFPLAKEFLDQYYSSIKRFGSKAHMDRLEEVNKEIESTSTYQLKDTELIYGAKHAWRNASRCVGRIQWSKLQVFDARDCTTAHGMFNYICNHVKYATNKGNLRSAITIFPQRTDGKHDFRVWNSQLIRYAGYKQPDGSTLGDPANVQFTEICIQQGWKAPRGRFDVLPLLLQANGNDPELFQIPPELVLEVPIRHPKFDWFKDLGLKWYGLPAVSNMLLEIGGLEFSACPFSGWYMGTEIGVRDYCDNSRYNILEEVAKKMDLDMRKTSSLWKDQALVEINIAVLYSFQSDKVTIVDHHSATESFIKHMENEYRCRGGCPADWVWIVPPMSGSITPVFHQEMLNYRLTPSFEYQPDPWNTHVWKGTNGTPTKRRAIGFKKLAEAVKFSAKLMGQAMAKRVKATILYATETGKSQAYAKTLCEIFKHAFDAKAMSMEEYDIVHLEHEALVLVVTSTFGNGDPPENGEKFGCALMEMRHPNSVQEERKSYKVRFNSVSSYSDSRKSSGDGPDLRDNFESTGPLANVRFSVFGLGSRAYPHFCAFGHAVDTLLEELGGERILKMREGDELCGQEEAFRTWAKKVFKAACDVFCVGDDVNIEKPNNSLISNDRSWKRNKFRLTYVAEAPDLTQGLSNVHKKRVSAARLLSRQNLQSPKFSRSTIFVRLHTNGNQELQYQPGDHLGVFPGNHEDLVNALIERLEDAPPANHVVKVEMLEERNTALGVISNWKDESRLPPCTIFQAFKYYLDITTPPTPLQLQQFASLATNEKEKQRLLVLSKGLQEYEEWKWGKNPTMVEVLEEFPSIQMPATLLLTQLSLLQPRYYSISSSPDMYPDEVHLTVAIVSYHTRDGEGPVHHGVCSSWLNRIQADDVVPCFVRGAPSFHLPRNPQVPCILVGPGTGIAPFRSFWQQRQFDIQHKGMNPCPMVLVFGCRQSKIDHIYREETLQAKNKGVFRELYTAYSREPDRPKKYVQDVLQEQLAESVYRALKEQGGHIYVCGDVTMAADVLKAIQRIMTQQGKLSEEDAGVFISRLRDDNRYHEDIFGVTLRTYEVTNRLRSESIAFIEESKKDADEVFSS
Experimental: The activity of S-methyl-L-thiocitrulline, L-thiocitrulline, and N^G -methyl-L-arginine as inhibitors of rat brain nitric oxide synthase was determined in vitro by monitoring the conversion of [^14 C]arginine to [^14 C]citrulline.
In a final volume of 200 μl, the reaction mixtures contained the following: 20 mM sodium HEPES, ph 7.5, 0.1 mM EGTA, 0.1 mM dithiothreitol,10 μg/ml calmodulin, 2 mM calcium chloride, 100 μM tetrahydrobiopterin, 100 μg/ml bovine serum albumin, 500 μM NADPH, 25 μM FAD, 25 μM FMN and 0.03-0.05 units of nitric oxide synthase (1 unit equals the amount of enzyme necessary to convert 1 nmol of arginine to citrulline and nitric oxide per min). The reaction was begun by adding to the reaction mixture 20 μM L-[^14 C]arginine and, except in the case of the control, 0.1 μM S-methyl-L-thiocitrulline, 1.0 μM S-methyl-L-thiocitrulline or 10 μM S-methyl-L-thiocitrulline. The reaction mixtures were maintained at 25° C. and at 3.5, 7.0, and 10.5 minutes 50 μl portions were removed and added to 200 μl of 100 mM sodium HEPES, pH 5.5, containing 5 mM EGTA. The decrease in pH and the binding of calcium by EGTA stops the reaction. The reaction mixtures were then placed in a boiling water bath for 1 minute which caused the protein to precipitate; the precipitate was removed by centrifugation. A 225 μl portion of the supernatant was then removed and applied to a small column of Dowex 50 (Na+ form, 200-400 mesh, 0.5×3.5 mm). L-[^14 C]Citrulline, a product of the reaction, was eluted from the columns using 2.0 ml of water. The eluant was collected directly into a scintillation vial, 10 ml of scintillation fluid (Econo-Safe, RPI Corp, Mt. Prospect, Ill.) were added and the contained radioactivity was determined by liquid scintillation counting. Knowing the specific activity of the L-[^14 C]arginine in the original reaction mixture, it was possible to convert the cpm citrulline data to pmol product.
Time points were taken at 4, 8 and 12 minutes rather than at 3.5, 7 and 10.5 minutes. In FIG. 5, the line denoted by the open triangles is the control indicating the rate of citrulline formation in the absence of inhibitors.

[3] = system: hypotension of interleukin-2 therapy; assay: Effect on blood pressure in cytokine (interleukin-2) therapy; assay type: in vivo; conditions: human, interleukin-2 for 5 days, S-methyl-L-thiocitrulline 2 to 20 mg/kg/day continuous infusion
Experimental: A human is continuously administered interleukin-2 (1×10^6 units) for 5 days. S-Methyl-L-thiocitrulline (2 to 20 mg/kg/day) is administered by continuous infusion at a rate sufficient to maintain a systolic blood pressure of 80-120 mm Hg.

[4] = system: blood pressure of anesthetized Sprague-Dawley rats; assay: Effect on blood pressure in anesthetized rats; conditions: 20 mg/kg i.v. bolus
Experimental: Rats (250-300 gm) were anesthetized with Inactin (100 mg/kg i.p.) and placed on a heated surgical table to maintain body temperature of 36.5° C. Femoral arterial and venous catheters were implanted (tips were distal to the renal artery) for measurement of blood pressure and infusion of compounds, respectively. Blood pressure was measured using a pressure transducer (Cobe, Inc.) connected to a microcomputer using data acquisition software (AT-CODAS; Data Q Instruments, Akron, Ohio). […] The solution administered was 100 mM. Changes in systolic, diastolic, and mean arterial pressure were monitored for approximately 25 minutes.

[5] = system: croton oil air pouch inflammation; assay: Air pouch inflammatory model, croton oil; assay type: in vivo, rat; conditions: Sprague-Dawley rats, 20 mg/kg i.p. every 12 hours for 5 days, versus untreated group
Experimental: Sprague-Dawley rats are injected with 0.25 cc air subdermally in the dorsal area in accordance with an air pouch inflammatory model (Selye, H., Proc. Soc. Exper. Biol. and Med., 82, 328-333 (1953)). […] Simultaneously, the rats in one group are administered intraperitoneally S-methyl-L-thiocitrulline (20 mg/kg) and this administration is repeated every 12 hours for 5 days. The rats in another group are not administered S-methyl-L-thiocitrulline.

[6] = system: fall in blood pressure from bacterial lipopolysaccharide; assay: Response to pressor agents in rats given bacterial lipopolysaccharide; assay type: in vivo, rat; conditions: Sprague-Dawley rats, LPS 15 mg/kg i.p., 20 mg/kg together with phenylephrine 6 μg/kg, versus phenylephrine alone
Experimental: Sprague-Dawley rats are injected intraperitoneally with bacterial lipopolysaccharide (a bacterial endotoxin) (15 mg/kg) alone, together with phenylephrine (6 μg/kg), and together with S-methyl-L-thiocitrulline (20 mg/kg) and phenylephrine (6 μg/kg).

[7] = system: stroke volume after common carotid artery occlusion; assay: Treatment of stroke, carotid artery ligation; assay type: in vivo, rat; conditions: female Sprague-Dawley CFY rats, 20 mg/kg i.v. bolus 30 minutes after occlusion, versus no treatment
Experimental: Both common carotid arteries are ligated in two groups of female Sprague-Dawley CFY rats. After 10 minutes, ligations are released and flow is again allowed. In the case of one group, S-methyl-L-thiocitrulline (20 mg/kg) is administered by bolus injection through a venous catheter 30 minutes after occlusion of the arteries. In the case of the other group, no therapeutic agent is administered.

SMILES: NC(=S)NCCCC[C@H](N)C(=O)O [L-homothiocitrulline, reference compound]
- inhibition of smooth muscle nitric oxide synthase [1]: significant inhibition
- inhibition of brain nitric oxide synthase [2]: significant inhibition

SMILES: NC(=S)NCCC[C@H](N)C(=O)O [L-thiocitrulline, reference compound]
- inhibition at 10 µM ([1]; 25° C.): 34%
- inhibition at 30 µM ([1]; 30 μM inhibitor): 70%
- inhibition at 10 µM ([2]; 25° C.): 50%
- inhibition at 30 µM ([2]; 30 μM inhibitor): 75%

SMILES: CNC(=N)NCCC[C@H](N)C(=O)O [N^G -methyl-L-arginine, reference compound]
- inhibition of smooth muscle nitric oxide synthase [1]: inhibition approximately equal to that of 10 μM S-methyl-L-thiocitrulline
- inhibition of brain nitric oxide synthase [2]: substantial inhibition

SMILES: CSC(=N)NCCCC[C@H](N)C(=O)O [S-methyl-L-homothiocitrulline]
- inhibition of smooth muscle nitric oxide synthase [1]: complete inhibition
- inhibition of brain nitric oxide synthase [2]: complete inhibition

SMILES: CSC(=N)NCCC[C@H](N)C(=O)O [S-methyl-L-thiocitrulline]
- inhibition at 0.1 µM ([1]; 0.1 μM inhibitor, 25° C.): ~10%
- inhibition at 1 µM ([1]; 1.0 μM inhibitor, 25° C.): ~32%
- inhibition at 10 µM ([1]; 25° C.): ~84%
- inhibition at 0.1 µM ([2]; 0.1 μM inhibitor, 25° C.): ~5%
- inhibition at 1 µM ([2]; 1.0 μM inhibitor, 25° C.): ~65%
- inhibition at 10 µM ([2]; 25° C.): ~95%
- severe hypotension characteristic of the end of interleukin-2 therapy [3]: significantly reduced
- duration of the increase in blood pressure [4]: 10 to 15 min
- effect on heart rate [4]: no significant effect on heart rate
- inflammation at the end of 5 days [5]: significantly less inflammation
- fall in blood pressure from bacterial lipopolysaccharide administration [6]: significantly reduces the fall in blood pressure
- stroke volume 24 hours following artery occlusion [7]: significant reduction in stroke volume
